# Source: US20070020196A1, “Inhalant formulation containing sulfoalkyl ether cyclodextrin and corticosteroid prepared from a unit dose suspension” (priority 2003, published 2007)
# Columns and labels:
# [1] = Solubility of selected steroids enhanced by cyclodextrins (phase solubility); conditions: thermodynamic from solid
# [2] = Molar ratio SAE-CD:corticosteroid at saturated solubility (phase solubility binding study); assay type: physicochemical
# physchem = conditions: thermodynamic from solid
# [3] = Stability of budesonide R- and S-isomers with and without SBE7-β-CD (Example 13); assay type: physicochemical
# Protocol: The inventors have also discovered that SAE-CD is capable of stabilizing the isomers of budesonide to different extents. A study to determine if SBE7-β-CD stabilized budesonide solutions and if it preferentially stabilized one isomer was conducted according to Example 13. FIG. 11 is a semi-log plot of the % of initial concentration at each time point for the samples stored at 60 ° C. Loss of budesonide was first order at each temperature.
# Solutions of budesonide with and without SBE7-β-CD were prepared at two different pHs (4 and 6) and stored at 2 different temperatures (60° C. and 80° C.). Citrate buffers (50 mM) at each pH value were prepared by mixing differing portions of 50 mM citric acid and 50 mM sodium citrate (tribasic, dihydrate) solutions. To achieve a concentration of budesonide in the buffers without SBE7-β-CD sufficient for accurate measurement, the budesonide was dissolved first in 100% ethyl alcohol. An aliquot of the ethanol/budesonide solution was then added drop-wise with stirring to each buffer solution. The theoretical budesonide concentration was 100 μg/mL with a final ethanolic content of 5% in each buffer. All solution preps and procedures involving budesonide were done in a darkened room under red light. After shaking solutions for 24 hours, both buffer solutions were filtered through Millipore Millex-GV 0.22 μm syringe filters to remove any solid that had precipitated (no significant amounts observed) from the solutions. The final budesonide concentration was about 50 μg/mL. Both the pH 4 and 6 solutions were split in two, and solid SBE7-β-CD was added to one of the portions to create solutions with and without 1% w/v SBE7-β-CD at each pH. Each solution was aliquoted into individual amber vials. They were then placed in ovens at 60° C. and 80° C. Sample vials were removed from the ovens and analyzed by HPLC at 0, 96, 164, and 288 hours. The HPLC assay conditions are summarized below.
# [4] = aqueous cyclodextrin solution, aqueous with cosolvent or surfactant or cyclodextrin, Solubility of steroid, (SBE)2.4 β-CD 0.04 M
# [5] = aqueous cyclodextrin solution, aqueous with cosolvent or surfactant or cyclodextrin, Solubility of steroid, (SBE)5.2 γ-CD 0.1 M
# [6] = aqueous cyclodextrin solution, aqueous with cosolvent or surfactant or cyclodextrin, Solubility of steroid, (SBE)6.1 γ-CD 0.04 M
# [7] = aqueous cyclodextrin solution, aqueous with cosolvent or surfactant or cyclodextrin, Solubility of steroid, (SBE)6.1 γ-CD 0.08 M
# [8] = aqueous cyclodextrin solution, aqueous with cosolvent or surfactant or cyclodextrin, Solubility of steroid, (SBE)6.7 β-CD 0.0465 M
# [9] = aqueous cyclodextrin solution, aqueous with cosolvent or surfactant or cyclodextrin, Solubility of steroid, (SBE)6.7 β-CD 0.0950 M
# [10] = aqueous cyclodextrin solution, aqueous with cosolvent or surfactant or cyclodextrin, Solubility of steroid, (SBE)9.7 γ-CD […]
# [11] = aqueous cyclodextrin solution, aqueous with cosolvent or surfactant or cyclodextrin, Solubility of steroid, (SPE)5.4 γ-CD 0.04 M
# [12] = aqueous cyclodextrin solution, aqueous with cosolvent or surfactant or cyclodextrin, Solubility of steroid, (SPE)5.4 γ-CD 0.08 M
# [13] = aqueous cyclodextrin solution, aqueous with cosolvent or surfactant or cyclodextrin, Solubility of steroid, (SPE)7 β-CD 0.04 M
# [14] = aqueous cyclodextrin solution, aqueous with cosolvent or surfactant or cyclodextrin, Solubility of steroid, (SPE)7 β-CD 0.08 M
# [15] = aqueous cyclodextrin solution, aqueous with cosolvent or surfactant or cyclodextrin, Solubility of steroid, γ-CD 0.1 M
# [16] = water, Solubility of steroid, H2O, no CD
# [17] = aqueous with cosolvent or surfactant or cyclodextrin, [Steroid] solubility, (SBE)6.1 γ-CD (0.04 M)
# [18] = aqueous with cosolvent or surfactant or cyclodextrin, [Steroid] solubility, Captisol (0.04 M)
# [19] = water, [Steroid] Intrinsic Solubility (in H2O)
# [20] = aqueous cyclodextrin solution, aqueous with cosolvent or surfactant or cyclodextrin, Solubility of steroid, (SBE)7 α-CD 0.04 M
# [21] = aqueous cyclodextrin solution, aqueous with cosolvent or surfactant or cyclodextrin, Solubility of steroid, (SBE)7 α-CD 0.08 M
# [22] = aqueous cyclodextrin solution, aqueous with cosolvent or surfactant or cyclodextrin, Solubility of steroid, α-CD 0.08 M
# [23] = aqueous cyclodextrin solution, aqueous with cosolvent or surfactant or cyclodextrin, Solubility of steroid, β-CD 0.015M
# [24] = aqueous cyclodextrin solution, aqueous with cosolvent or surfactant or cyclodextrin, Solubility of steroid, γ-CD 0.035 M
# [25] = aqueous cyclodextrin solution, aqueous with cosolvent or surfactant or cyclodextrin, [Steroid] solubility, (SBE)6.1 γ-CD (0.04 M)
# [26] = aqueous cyclodextrin solution, aqueous with cosolvent or surfactant or cyclodextrin, [Steroid] solubility, Captisol (0.04 M)
# [27] = water, [Steroid] Intrinsic Solubility (in H2O), in H2O
"solubility [1, 5] [µM]","solubility [1, 6] [µM]","solubility [1, 7] [µM]","solubility [1, 8] [µM]","solubility [1, 9] [µM]","solubility [1, 10] [µM]","solubility [1, 11] [µM]","solubility [1, 12] [µM]","solubility [1, 13] [µM]","solubility [1, 14] [µM]","solubility [1, 15] [µM]","solubility [1, 16] [µM]","solubility [1, 20] [µM]","solubility [1, 21] [µM]","solubility [1, 24] [µM]","solubility [1, 25] [µM]","solubility [1, 26] [µM]","solubility [1, 27] [µM]",Compound,Approximate Molar Ratio at Saturated Solubility of Corticosteroid (SAE-CD: corticosteroid) ([2]; SAE-β-CD),Approximate Molar Ratio at Saturated Solubility of Corticosteroid (SAE-CD: corticosteroid) ([2]; SAE-γ-CD),further results
14400,5760,9490,1260,2160,8950,7600,13900,939,1510,822,1.6,–,–,–,–,–,–,"C[C@@H]1C[C@H]2[C@@H]3C[C@H](F)C4=CC(=O)C=C[C@]4(C)[C@@]3(F)[C@@H](O)C[C@]2(C)[C@@]1(O)C(=O)SCF [Fluticasone, fluticasone]",~32,–,"solubility [1, 4]: 128 µM"
–,–,–,–,–,–,–,–,–,–,–,–,–,–,–,–,–,–,C[C@]12C=CC(=O)C=C1CC[C@@H]1[C@@H]2C(=O)C[C@@]2(C)[C@H]1CC[C@]2(O)C(=O)CO [Prednisone],–,–,solubility (physchem; [17]): 13100 µM; solubility (physchem; [18]): 18300 µM; solubility (physchem; [19]): 505 µM
–,–,–,–,–,–,–,–,–,–,–,–,–,–,–,–,–,–,CC1(C)O[C@@H]2C[C@H]3[C@@H]4C[C@H](F)C5=CC(=O)C=C[C@]5(C)[C@H]4[C@@H](O)C[C@]3(C)[C@]2(C(=O)CO)O1 [Flunisolide],~16,~9,solubility (physchem; [17]): 4550 µM; solubility (physchem; [18]): 2620 µM; solubility (physchem; [19]): 113 µM
939,415,929,164,311,940,287,513,72.3,108,658,18.2,301,355,141,415,164,18.2,"C[C@@H]1C[C@H]2[C@@H]3CCC4=CC(=O)C=C[C@]4(C)[C@@]3(Cl)[C@@H](O)C[C@]2(C)[C@@]1(OC(=O)c1ccco1)C(=O)CCl [Mometasone furoate, mometasone furoate]",~274,~101,"solubility [1, 22]: 2.7 µM; solubility [1, 23]: 13.6 µM; Approximate Molar Ratio at Saturated Solubility of Corticosteroid (SAE-CD: corticosteroid) ([2]; SAE-α-CD): ~141"
8890,8410,14200,1220,2260,8900,–,14700,1220,2230,0.9,–,550,1170,27.1,–,–,–,"C[C@@H]1C[C@H]2[C@@H]3CCC4=CC(=O)C=C[C@]4(C)[C@@]3(Cl)[C@@H](O)C[C@]2(C)[C@@]1(O)C(=O)CCl [Mometasone, mometasone]",~33,–,"solubility ([1]; aqueous cyclodextrin solution, aqueous with cosolvent or surfactant or cyclodextrin, Solubility of steroid, α-CD 0.04 M): 84 µM; solubility [1, 22]: 285 µM; solubility [1, 23]: 129 µM; Approximate Molar Ratio at Saturated Solubility of Corticosteroid (SAE-CD: corticosteroid) ([2]; SAE-α-CD): ~73"
2150,518,1210,54.1,79.9,1030,717,1400,10.5,21.2,221,3.9,83.7,114,735,518,54.1,3.9,"CCC(=O)O[C@]1(C(=O)SCF)[C@H](C)C[C@H]2[C@@H]3C[C@H](F)C4=CC(=O)C=C[C@]4(C)[C@@]3(F)[C@@H](O)C[C@@]21C [Fluticasone propionate, fluticasone propionate]",~797,~51,"solubility [1, 4]: 17 µM; solubility ([1]; aqueous cyclodextrin solution, aqueous with cosolvent or surfactant or cyclodextrin, Solubility of steroid, (SBE)2.4 β-CD 0.08 M): 24.6 µM; solubility ([1]; aqueous cyclodextrin solution, aqueous with cosolvent or surfactant or cyclodextrin, Solubility of steroid, (SBE)5.2 γ-CD 0.04 M): 791 µM; solubility ([1]; aqueous cyclodextrin solution, aqueous with cosolvent or surfactant or cyclodextrin, Solubility of steroid, (SBE)9.7 γ-CD 0.04 M): 545 µM; Approximate Molar Ratio at Saturated Solubility of Corticosteroid (SAE-CD: corticosteroid) ([2]; SAE-α-CD): ~501"
–,–,–,–,–,–,–,–,–,–,–,–,–,–,–,–,–,–,"CCC[C@@H]1O[C@@H]2C[C@H]3[C@@H]4CCC5=CC(=O)C=C[C@]5(C)[C@H]4[C@@H](O)C[C@]3(C)[C@]2(C(=O)CO)O1 (single isomer, unassigned) [R-isomer]",–,–,"With/without CAPTISOL ratio of rate constants ([3]; pH 4, 60° C.): 0.547; With/without CAPTISOL ratio of rate constants ([3]; pH 4, 80° C.): 0.607; Pseudo 1st Order Rate constant ([3]; pH 4 no CAPTISOL, 60° C.): 0.00109 h⁻¹; Pseudo 1st Order Rate constant ([3]; pH 4 no CAPTISOL, 80° C.): 0.003704 h⁻¹; Pseudo 1st Order Rate constant ([3]; pH 4 w/ CAPTISOL, 60° C.): 0.000597 h⁻¹; Pseudo 1st Order Rate constant ([3]; pH 4 w/ CAPTISOL, 80° C.): 0.00225 h⁻¹; With/without CAPTISOL ratio of rate constants ([3]; pH 6, 60° C.): 0.385; With/without CAPTISOL ratio of rate constants ([3]; pH 6, 80° C.): 0.529; Pseudo 1st Order Rate constant ([3]; pH 6 no CAPTISOL, 60° C.): 0.00432 h⁻¹; Pseudo 1st Order Rate constant ([3]; pH 6 no CAPTISOL, 80° C.): 0.0138 h⁻¹; Pseudo 1st Order Rate constant ([3]; pH 6 w/ CAPTISOL, 60° C.): 0.001661 h⁻¹; Pseudo 1st Order Rate constant ([3]; pH 6 w/ CAPTISOL, 80° C.): 0.00732 h⁻¹"
–,–,–,–,–,–,–,–,–,–,–,–,–,–,–,–,–,–,"CCC[C@H]1O[C@@H]2C[C@H]3[C@@H]4CCC5=CC(=O)C=C[C@]5(C)[C@H]4[C@@H](O)C[C@]3(C)[C@]2(C(=O)CO)O1 (single isomer, unassigned) [S-isomer]",–,–,"With/without CAPTISOL ratio of rate constants ([3]; pH 4, 60° C.): 0.323; With/without CAPTISOL ratio of rate constants ([3]; pH 4, 80° C.): 0.491; Pseudo 1st Order Rate constant ([3]; pH 4 no CAPTISOL, 60° C.): 0.0037 h⁻¹; Pseudo 1st Order Rate constant ([3]; pH 4 no CAPTISOL, 80° C.): 0.00131 h⁻¹; Pseudo 1st Order Rate constant ([3]; pH 4 w/ CAPTISOL, 60° C.): 0.00012 h⁻¹; Pseudo 1st Order Rate constant ([3]; pH 4 w/ CAPTISOL, 80° C.): 0.000644 h⁻¹; With/without CAPTISOL ratio of rate constants ([3]; pH 6, 60° C.): 0.193; With/without CAPTISOL ratio of rate constants ([3]; pH 6, 80° C.): 0.384; Pseudo 1st Order Rate constant ([3]; pH 6 no CAPTISOL, 60° C.): 0.001872 h⁻¹; Pseudo 1st Order Rate constant ([3]; pH 6 no CAPTISOL, 80° C.): 0.00661 h⁻¹; Pseudo 1st Order Rate constant ([3]; pH 6 w/ CAPTISOL, 60° C.): 0.000361 h⁻¹; Pseudo 1st Order Rate constant ([3]; pH 6 w/ CAPTISOL, 80° C.): 0.00254 h⁻¹"

Compound,"solubility [1, 5] [µM]","solubility [1, 6] [µM]","solubility [1, 7] [µM]","solubility [1, 8] [µM]","solubility [1, 9] [µM]","solubility [1, 10] [µM]","solubility [1, 11] [µM]","solubility [1, 12] [µM]","solubility [1, 13] [µM]","solubility [1, 14] [µM]","solubility [1, 15] [µM]","solubility [1, 16] [µM]","solubility [1, 20] [µM]","solubility [1, 21] [µM]","solubility [1, 24] [µM]","solubility [1, 25] [µM]","solubility [1, 26] [µM]","solubility [1, 27] [µM]",Approximate Molar Ratio at Saturated Solubility of Corticosteroid (SAE-CD: corticosteroid) ([2]; SAE-β-CD),Approximate Molar Ratio at Saturated Solubility of Corticosteroid (SAE-CD: corticosteroid) ([2]; SAE-γ-CD),further results
"CC1(C)O[C@@H]2C[C@H]3[C@@H]4CCC5=CC(=O)C=C[C@]5(C)[C@@]4(F)[C@@H](O)C[C@]3(C)[C@]2(C(=O)CO)O1 [Triamcinolone acetonide, triamcinolone acetonide]",–,10600,23900,4570,10200,–,–,–,–,–,1390,35.6,–,–,1980,10600,4570,35.6,~9,–,–
